Test results reported in patent publication US9211310B2, “Use of a Chinese medicine composition in preparing medicaments for treating secondary prevention of myocardial infarction” (TASLY PHARMACEUTICAL GROUP CO., LTD, priority 2010, dated 2015).

System: patients after acute myocardial infarction
Assay: TCM symptom score, total and single (chest pain, chest tightness, short breath, fatigue, palpitation, spontaneous perspiration, pale complexion), same clinical trial
Format: in vivo, human
Parameters: total score of TCM symptom, Mean / total score of TCM symptom, Min / total score of TCM symptom, Max / total score of TCM symptom, Md / change of total score of TCM symptom, Mean / change of total score of TCM symptom, Max / change of total score of TCM symptom, Md: scale not given here
Conditions: PP
Text: 3508 patients who were in accordance with the diagnostic standards of AMI for 28 days to 2 years and differentiated as Qi deficiency and blood stagnation syndrome by TCM were studied. 0.5 g Chinese medicine composition prepared by the method of EXAMPLE 1 (Coded as QSYQ) was administrated half an hour after meal, 3 times per day.
They included the overall survival time, angina pectoris score, TCM symptom score and life quality score, where angina pectoris score, TCM symptom score and life quality score were evaluated at randomization, in 1st, 3rd, 6th, 9th, 12th month after treatment and 18th month after follow-up.
The analysis method referred to the angina pectoris score.

[1] = 1 month after treatment-baseline
[2] = 3 month after treatment-baseline
[3] = 3 months after treatment-baseline

CC(=O)Oc1ccccc1C(=O)O [Control group, aspirine]
change of palpitation −3, number of patients [1]: 0
change of palpitation −3, percent of patients [1]: (0.00%)
change of short breath 0, % of patients [1]: (77.53%)
change of short breath 0, number of patients [1]: 1132
change of short breath 2, % of patients [1]: (14.59%)
change of short breath 2, number of patients [1]: 213
change of short breath 4, % of patients [1]: (1.71%)
change of short breath 4, number of patients [1]: 25
change of short breath 6, % of patients [1]: (0.41%)
change of short breath 6, number of patients [1]: 6
change of short breath −2, % of patients [1]: (5.27%)
change of short breath −2, number of patients [1]: 77
change of short breath −4, % of patients [1]: (0.48%)
change of short breath −4, number of patients [1]: 7
change of short breath −6, % of patients [1]: (0.00%)
change of short breath −6, number of patients [1]: 0
change of spontaneous perspiration 0, number of patients [1]: 1068
change of spontaneous perspiration 0, percent of patients [1]: (73.15%)
change of spontaneous perspiration 1, number of patients [1]: 238
change of spontaneous perspiration 1, percent of patients [1]: (16.30%)
change of spontaneous perspiration 2, number of patients [1]: 48
change of spontaneous perspiration 2, percent of patients [1]: (3.29%)
change of spontaneous perspiration 3, number of patients [1]: 12
change of spontaneous perspiration 3, percent of patients [1]: (0.82%)
change of spontaneous perspiration −1, number of patients [1]: 77
change of spontaneous perspiration −1, percent of patients [1]: (5.27%)
change of spontaneous perspiration −2, number of patients [1]: 14
change of spontaneous perspiration −2, percent of patients [1]: (0.96%)
change of spontaneous perspiration −3, number of patients [1]: 3
change of spontaneous perspiration −3, percent of patients [1]: (0.21%)
change of total score of TCM symptom, Max [1]: 24.00
change of total score of TCM symptom, Md [1]: −1.00
change of total score of TCM symptom, Mean [1]: −2.00
change of total score of TCM symptom, Min [1]: −28.00
change of total score of TCM symptom, Max [2]: 19.00
change of total score of TCM symptom, Md [2]: −2.00
change of total score of TCM symptom, Mean [2]: −3.05
change of total score of TCM symptom, Min [2]: −28.00
distribution of total score of TCM symptom: Medium, number of patients (3 months after treatment): 489
distribution of total score of TCM symptom: Medium, percentage of patients (3 months after treatment): (33.79%)
distribution of total score of TCM symptom: Mild, number of patients (3 months after treatment): 946
distribution of total score of TCM symptom: Mild, percentage of patients (3 months after treatment): (65.38%)
distribution of total score of TCM symptom: Severe, number of patients (3 months after treatment): 12
distribution of total score of TCM symptom: Severe, percentage of patients (3 months after treatment): (0.83%)
fatigue score 0, % of patients (3 months after treatment): (28.28%)
fatigue score 0, number of patients (3 months after treatment): 409
fatigue score 2, % of patients (3 months after treatment): (59.75%)
fatigue score 2, number of patients (3 months after treatment): 864
fatigue score 4, % of patients (3 months after treatment): (11.41%)
fatigue score 4, number of patients (3 months after treatment): 165
fatigue score 6, % of patients (3 months after treatment): (0.55%)
fatigue score 6, number of patients (3 months after treatment): 8
pale complexion score 0, number of patients (3 months after treatment): 693
pale complexion score 0, percent of patients (3 months after treatment): (47.89%)
pale complexion score 1, number of patients (3 months after treatment): 566
pale complexion score 1, percent of patients (3 months after treatment): (39.12%)
pale complexion score 2, number of patients (3 months after treatment): 172
pale complexion score 2, percent of patients (3 months after treatment): (11.89%)
pale complexion score 3, number of patients (3 months after treatment): 16
pale complexion score 3, percent of patients (3 months after treatment): (1.11%)
palpitation score 0, number of patients (3 months after treatment): 403
palpitation score 0, percent of patients (3 months after treatment): (27.87%)
palpitation score 2, number of patients (3 months after treatment): 759
palpitation score 2, percent of patients (3 months after treatment): (52.49%)
palpitation score 4, number of patients (3 months after treatment): 261
palpitation score 4, percent of patients (3 months after treatment): (18.05%)
palpitation score 6, number of patients (3 months after treatment): 23
palpitation score 6, percent of patients (3 months after treatment): (1.59%)
short breath score 0, % of patients (3 months after treatment): (21.44%)
short breath score 0, number of patients (3 months after treatment): 310
short breath score 3, % of patients (3 months after treatment): (59.13%)
short breath score 3, number of patients (3 months after treatment): 855
short breath score 6, % of patients (3 months after treatment): (18.74%)
short breath score 6, number of patients (3 months after treatment): 271
short breath score 9, % of patients (3 months after treatment): (0.69%)
short breath score 9, number of patients (3 months after treatment): 10
spontaneous perspiration score 0, number of patients (3 months after treatment): 563
spontaneous perspiration score 0, percent of patients (3 months after treatment): (38.93%)
spontaneous perspiration score 1, number of patients (3 months after treatment): 709
spontaneous perspiration score 1, percent of patients (3 months after treatment): (49.03%)
spontaneous perspiration score 2, number of patients (3 months after treatment): 167
spontaneous perspiration score 3, number of patients (3 months after treatment): 7
spontaneous perspiration score 3, percent of patients (3 months after treatment): (0.48%)
total score of TCM symptom, Max (3 months after treatment): 33.00
total score of TCM symptom, Md (3 months after treatment): 10.00
total score of TCM symptom, Mean (3 months after treatment): 10.88
total score of TCM symptom, Min (3 months after treatment): 0.00
change of fatigue 0, % of patients [3]: (63.96%)
change of fatigue 0, number of patients [3]: 923
change of fatigue 2, % of patients [3]: (25.50%)
change of fatigue 2, number of patients [3]: 368
change of fatigue 4, % of patients [3]: (4.16%)
change of fatigue 4, number of patients [3]: 60
change of fatigue 6, % of patients [3]: (0.97%)
change of fatigue 6, number of patients [3]: 14
change of fatigue −2, % of patients [3]: (4.85%)
change of fatigue −2, number of patients [3]: 70
change of fatigue −4, % of patients [3]: (0.42%)
change of fatigue −4, number of patients [3]: 6
change of fatigue −6, % of patients [3]: (0.14%)
change of fatigue −6, number of patients [3]: 2
change of pale complexion 0, number of patients [3]: 1177
change of pale complexion 0, percent of patients [3]: (81.68%)
change of pale complexion 1, number of patients [3]: 217
change of pale complexion 1, percent of patients [3]: (15.06%)
change of pale complexion −1, number of patients [3]: 47
change of pale complexion −1, percent of patients [3]: (3.26%)
change of palpitation 0, number of patients [3]: 943
change of palpitation 0, percent of patients [3]: (65.35%)
change of palpitation 1, number of patients [3]: 356
change of palpitation 1, percent of patients [3]: (24.67%)
change of palpitation 2, number of patients [3]: 39
change of palpitation 2, percent of patients [3]: (2.70%)
change of palpitation 3, number of patients [3]: 5
change of palpitation 3, percent of patients [3]: (0.35%)
change of palpitation −1, number of patients [3]: 99
change of palpitation −1, percent of patients [3]: (6.86%)
change of palpitation −2, number of patients [3]: 1
change of palpitation −2, percent of patients [3]: (0.07%)
change of palpitation −3, number of patients [3]: 0
change of palpitation −3, percent of patients [3]: (0.00%)
change of short breath 0, % of patients [3]: (70.27%)
change of short breath 0, number of patients [3]: 1014
change of short breath 2, % of patients [3]: (21.41%)
